Data taken from ChEMBL document CHEMBL1133072, “Synthesis and biological activity of 1beta-methyl-2-[5'-isoxazoloethenylpyrrolidin-3'-ylthio]carbapenems” (2000).
Converted amounts (≈) assume the structure as drawn.

Columns and labels:
Salmonella typhimurium = assay: Minimum inhibitory concentration against Salmonella Typhimurium was determined by agar dilution method using Mueller-Hinton; format: functional, Salmonella enterica subsp. enterica serovar Typhimurium; conditions: Salmonella enterica
Pseudomonas aeruginosa [1] = assay: Minimum inhibitory concentration against Pseudomonas aeruginosa 1771M was determined by agar dilution method using Mueller-Hinton; format: functional
Streptococcus pyogenes = assay: Minimum inhibitory concentration against Streptococcus pyogenes 308A was determined by agar dilution method using Mueller-Hinton; format: functional
Pseudomonas aeruginosa [2] = assay: Minimum inhibitory concentration against Pseudomonas aeruginosa 1592E was determined by agar dilution method using Mueller-Hinton; format: functional
Escherichia coli [3] = assay: Minimum inhibitory concentration against Escherichia coli 055 was determined by agar dilution method using Mueller-Hinton; format: functional
Staphylococcus aureus [4] = assay: Minimum inhibitory concentration against Staphylococcus aureus 503 was determined by agar dilution method using Mueller-Hinton; format: functional
Pseudomonas aeruginosa [5] = assay: Minimum inhibitory concentration against Pseudomonas aeruginosa 9027 was determined by agar dilution method using Mueller-Hinton; format: functional
Escherichia coli [6] = assay: Minimum inhibitory concentration against Escherichia coli 1507E was determined by agar dilution method using Mueller-Hinton; format: functional
Klebsiella aerogenes = assay: Minimum inhibitory concentration against Klebsiella aerogenes 1522E was determined by agar dilution method using Mueller-Hinton; format: functional
Staphylococcus aureus [7] = assay: Minimum inhibitory concentration against Staphylococcus aureus 285 was determined by agar dilution method using Mueller-Hinton; format: functional
[8] = target: Dipeptidase 1 (Sus scrofa) (UniProt P22412); assay: Relative half life of hydrolysis to meropenem by partially purified porcine renal DHP-I was determined
Chain of Dipeptidase 1 (Sus scrofa) (P22412 whole entry, looked up): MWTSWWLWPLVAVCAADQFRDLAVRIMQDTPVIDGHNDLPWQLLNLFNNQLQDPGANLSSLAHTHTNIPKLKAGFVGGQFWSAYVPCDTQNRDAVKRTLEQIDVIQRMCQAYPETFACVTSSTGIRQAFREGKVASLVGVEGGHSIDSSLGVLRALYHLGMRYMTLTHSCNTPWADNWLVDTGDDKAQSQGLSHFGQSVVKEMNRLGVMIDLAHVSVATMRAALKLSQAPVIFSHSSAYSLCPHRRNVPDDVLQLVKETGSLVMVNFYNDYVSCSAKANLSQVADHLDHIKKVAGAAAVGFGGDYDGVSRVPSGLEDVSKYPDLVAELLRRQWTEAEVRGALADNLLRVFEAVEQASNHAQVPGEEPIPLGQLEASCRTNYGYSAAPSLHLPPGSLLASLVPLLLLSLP

Enterobacter cloacae = assay: Minimum inhibitory concentration against Enterobacter cloacae 1321E was determined by agar dilution method using Mueller-Hinton; format: functional
Staphylococcus aureus [9] = assay: Minimum inhibitory concentration against Staphylococcus aureus SG 511 was determined by agar dilution method using Mueller-Hinton; format: functional
[10] = target: Dipeptidase 1 (Sus scrofa) (UniProt P22412); assay: Stability to porcine renal DHP-I was determined

SMILES	MIC (Salmonella typhimurium) [µg/mL]	MIC (Pseudomonas aeruginosa [1]) [µg/mL]	MIC (Streptococcus pyogenes) [ng/mL]	MIC (Pseudomonas aeruginosa [2]) [µg/mL]	MIC (Escherichia coli [3]) [µg/mL]	MIC (Staphylococcus aureus [4]) [µg/mL]	MIC (Pseudomonas aeruginosa [5]) [µg/mL]	MIC (Escherichia coli [6]) [µg/mL]	MIC (Klebsiella aerogenes) [µg/mL]	MIC (Staphylococcus aureus [7]) [µg/mL]	Relativity [8]	MIC (Enterobacter cloacae) [µg/mL]	MIC (Staphylococcus aureus [9]) [µg/mL]	Activity [10]
C[C@@H](O)[C@H]1C(=O)N2C(C(=O)O)=C(S[C@@H]3CN[C@H](/C=C/c4cc(Cl)no4)C3)[C@H](C)[C@H]12	0.025 (≈ 0.0568 µM)	0.195 (≈ 0.443 µM)	4 (≈ 0.00909 µM)	0.781 (≈ 1.78 µM)	0.025 (≈ 0.0568 µM)	0.013 (≈ 0.0296 µM)	0.781 (≈ 1.78 µM)	0.025 (≈ 0.0568 µM)	0.025 (≈ 0.0568 µM)	0.025 (≈ 0.0568 µM)	1.33	0.013 (≈ 0.0296 µM)	0.013 (≈ 0.0296 µM)	
C[C@@H](O)[C@H]1C(=O)N2C(C(=O)O)=C(S[C@@H]3CN[C@H](C(=O)N(C)C)C3)[C@H](C)[C@H]12 [MEROPENEM]	0.049 (≈ 0.128 µM)	0.049 (≈ 0.128 µM)	13 (≈ 0.0339 µM)	0.195 (≈ 0.509 µM)	0.025 (≈ 0.0652 µM)	0.098 (≈ 0.256 µM)	0.195 (≈ 0.509 µM)	0.025 (≈ 0.0652 µM)	0.049 (≈ 0.128 µM)	0.195 (≈ 0.509 µM)		0.025 (≈ 0.0652 µM)	0.195 (≈ 0.509 µM)	1
C[C@@H](O)[C@H]1C(=O)N2C(C(=O)O)=C(S[C@@H]3CN[C@H](/C=C\c4cnoc4)C3)[C@H](C)[C@H]12	0.391 (≈ 0.964 µM)	3.12 (≈ 7.71 µM)	< 2	25 (≈ 61.7 µM)	0.391 (≈ 0.964 µM)	0.013 (≈ 0.0321 µM)	25 (≈ 61.7 µM)	1.56 (≈ 3.85 µM)	3.12 (≈ 7.71 µM)	0.025 (≈ 0.0617 µM)	1.84	1.56 (≈ 3.85 µM)	0.013 (≈ 0.0321 µM)	
COc1cc(/C=C/[C@@H]2C[C@H](SC3=C(C(=O)O)N4C(=O)[C@H]([C@@H](C)O)[C@H]4[C@H]3C)CN2)on1	0.195 (≈ 0.448 µM)	6.25 (≈ 14.4 µM)	7 (≈ 0.0161 µM)	12.5 (≈ 28.7 µM)	0.098 (≈ 0.225 µM)	0.049 (≈ 0.113 µM)	12.5 (≈ 28.7 µM)	0.391 (≈ 0.898 µM)	0.391 (≈ 0.898 µM)	0.025 (≈ 0.0574 µM)	2.14	0.195 (≈ 0.448 µM)	0.049 (≈ 0.113 µM)	
C[C@@H](O)[C@H]1C(=O)N2C(C(=O)O)=C(S[C@@H]3CN[C@H](/C=C/c4ccon4)C3)[C@H](C)[C@H]12	0.098 (≈ 0.242 µM)	0.781 (≈ 1.93 µM)	25 (≈ 0.0617 µM)	3.12 (≈ 7.71 µM)	0.098 (≈ 0.242 µM)	0.098 (≈ 0.242 µM)	3.12 (≈ 7.71 µM)	0.098 (≈ 0.242 µM)	0.098 (≈ 0.242 µM)	0.195 (≈ 0.481 µM)	2.33	0.049 (≈ 0.121 µM)	0.195 (≈ 0.481 µM)	
COC(=O)c1cc(/C=C/[C@@H]2C[C@H](SC3=C(C(=O)O)N4C(=O)[C@H]([C@@H](C)O)[C@H]4[C@H]3C)CN2)on1	0.025 (≈ 0.0539 µM)	0.098 (≈ 0.211 µM)	7 (≈ 0.0151 µM)	0.195 (≈ 0.421 µM)	0.025 (≈ 0.0539 µM)	0.025 (≈ 0.0539 µM)	0.098 (≈ 0.211 µM)	0.025 (≈ 0.0539 µM)	0.049 (≈ 0.106 µM)	0.049 (≈ 0.106 µM)	2.68	0.025 (≈ 0.0539 µM)	0.049 (≈ 0.106 µM)	
